Experimental data reported in ChEMBL document CHEMBL5360641, “4'-Ethynyl-2'-deoxy-2'-β-fluoro-2-fluoroadenosine: A Highly Potent and Orally Available Clinical Candidate for the Treatment of HIV-1 Infection” (J Med Chem, 2023).
pEC50: −log10 of the molar value.

What was measured:
[1] = tested on: Human immunodeficiency virus 1; experiment: Antiviral activity against HIV1 VSV-G pseudotyped virus infected in human HEK293T cells assessed as inhibition of viral growth preincubated for 3 hrs followed by washout and further incubated with compound for 72 hrs by luciferase assay; assay type: functional, organism-based; conditions: Human immunodeficiency virus 1, HEK-293T
[2] = Selectivity index, ratio of CC50 for cytotoxicity against HEK293T cells assessed as reduction in cell viability by MTT assay to EC50 for antiviral activity against HIV1 VSV-G pseudotyped virus infected in human HEK293T cells assessed as inhibition of viral growth; assay type: toxicity, cell-based; conditions: read-out: Ratio CC50/EC50
[3] = Cytotoxicity against HEK293T cells assessed as reduction in cell viability by MTT assay; assay type: toxicity, cell-based, HEK-293T; conditions: human

Row | SMILES | pEC50 [1] | selectivity ratio [2] | CC50 [3] [nM]
1 | [N-]=[N+]=N[C@]1(CO)O[C@@H](n2cnc3c(N)nc(F)nc32)[C@@H](F)[C@@H]1O | 8.70 | > 50300 | > 100000
2 | C#C[C@]1(CO)O[C@@H](n2cnc3c(N)ncnc32)[C@@H](F)[C@@H]1O | 8.64 | 24600 | 56500
